US7135299B2, “Catalase-inactivating compounds and the use thereof” (priority 2001, dated 2006)

What was measured:
[1] = target: T1, catalase from ox liver (as active endogenous catalase) (Bos taurus, UniProt P00432); experiment: Catalase inactivation test: oxygen evolution from hydrogen peroxide measured as pressure in a closed tube, active endogenous catalase; type: biochemical; settings: 35 units of catalase from ox liver in 1 ml sample, 7 ml solution of the title compound, 0.23 g hydrogen peroxide 30%, 15 minutes at room temperature
T1 construct: catalase from ox liver (as active endogenous catalase); from tissue; host or cells: ox liver
T1 sequence (P00432 2-527 limits assumed): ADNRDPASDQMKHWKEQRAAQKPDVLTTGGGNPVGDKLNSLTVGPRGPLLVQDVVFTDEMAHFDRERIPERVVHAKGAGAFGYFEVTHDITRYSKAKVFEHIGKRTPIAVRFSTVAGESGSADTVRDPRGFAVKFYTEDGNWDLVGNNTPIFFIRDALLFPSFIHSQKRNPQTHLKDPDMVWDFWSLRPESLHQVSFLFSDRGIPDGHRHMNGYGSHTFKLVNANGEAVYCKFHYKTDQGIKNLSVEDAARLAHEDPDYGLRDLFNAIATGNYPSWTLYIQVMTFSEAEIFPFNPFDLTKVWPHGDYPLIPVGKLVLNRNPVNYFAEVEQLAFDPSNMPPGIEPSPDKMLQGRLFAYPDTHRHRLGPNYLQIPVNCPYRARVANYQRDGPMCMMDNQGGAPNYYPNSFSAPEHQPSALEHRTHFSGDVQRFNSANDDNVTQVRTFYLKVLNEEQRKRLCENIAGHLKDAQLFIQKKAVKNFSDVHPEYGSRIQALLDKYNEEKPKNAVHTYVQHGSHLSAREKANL
Source text: (§1) The following reagents are provided: • catalase from ox liver (as active endogenous catalase) • catalase from Aspergillus niger (as active intracellular catalase) • catalase from microorganisms^(*) (as active intracellular catalase) • antifoam (RD® from Dow Corning) • hydrogen peroxide (Perhydrol® 30% from Merck) ^(*)various bacteria and/or fungi
(§2) Each sample contains in each case 35 units of catalase from ox liver or from Aspergillus niger or from microorganisms per ml of distilled water. The 1 ml sample is put in a 15 ml tube (Vacutainer® 16×125 mm from Becton Dickinson), and in each case 7 ml of the aforementioned solution of the title compound are added and mixed therewith (Vortex® Genie 2 mixer from Merck). Then 1 drop of said antifoam is added and mixing is repeated. Thereafter 0.23 g of said hydrogen peroxide is added, and the tube is immediately made gas-tight with a stopper made of chemical-resistant elastic plastic (Viton® from Du Pont de Nemours), briefly (for a few seconds) ventilated with the aid of a hollow needle (Ø1 mm hypodermic needle) piercing the stopper and, immediately thereafter, closed gas-tight again by withdrawing the hollow needle from the stopper. The tube which has been closed gas-tight is left to stand at room temperature for 15 minutes. […] The pressure in the tube is then measured (cf. the description hereinafter of the preferred pressure gage). […]

[2] = tested on: catalase from Aspergillus niger / catalase from microorganisms (as active intracellular catalase); experiment: Catalase inactivation test: oxygen evolution from hydrogen peroxide measured as pressure in a closed tube, active intracellular catalase; type: biochemical, Aspergillus niger; various bacteria and/or fungi; settings: 35 units of catalase from Aspergillus niger or from microorganisms in 1 ml sample, 7 ml solution of the title compound, 0.23 g hydrogen peroxide 30%, 15 minutes at room temperature
Source text: as §1, §2

Substance: CH2═CH—COO—SO2—O—C12H25
- catalase activity by oxygen evolution (pressure in the tube) [1]: the pressure in the tube does not increase
- catalase activity by oxygen evolution (pressure in the tube) [2]: the pressure in the tube increases
